{"source": "paper PMC8141582", "about": "“Synergistic Effect of Statins and Abiraterone Acetate on the Growth Inhibition of Neuroblastoma via Targeting Androgen Receptor” (Frontiers in Oncology, 2021)", "key": {"[1]": {"test_system": "10A cells", "test": "MTT cell viability assay, 10A", "format": "cell-based", "details": "Homo sapiens, normal cell line, 72 h", "procedure": "(§1) Statins dissolved in DMSO and AA dissolved in ethanol. After 72 h treatment, the medium was added 0.5 mg/ml MTT reagent and incubated at 37°C for 4 h. Subsequently, the supernatant was aspirated, and cells were lysed in 150 µl DMSO, then shaken 10 min at 37°C. The optical density (OD) was measured at 570 and 630 nm using a plate reader."}, "[2]": {"test_system": "A498 cells", "parameters": "method as in Supplement [14]; key: Positive: Simvastatin alone inhibited the progression of cancer; Negative: Simvastatin alone could not inhibit the progression of cancer", "details": "Renal Cancer, 5.0 mg/kg/day, oral; ref Supplement [14]; cited from earlier work"}, "[3]": {"test_system": "HLMC cells from the primary patients", "parameters": "method as in Supplement [4]; key: Positive: Simvastatin alone inhibited the progression of cancer; Negative: Simvastatin alone could not inhibit the progression of cancer", "details": "Lung Carcinoma, 50.0 mg/kg/day, oral; ref Supplement [4]; cited from earlier work"}, "[4]": {"test_system": "HCT116 or HT29 cells", "parameters": "method as in Supplement [11]; key: Positive: Simvastatin alone inhibited the progression of cancer; Negative: Simvastatin alone could not inhibit the progression of cancer", "details": "Colorectal Cancer, 50.0 mg/kg/day, oral; ref Supplement [11]; cited from earlier work"}, "[5]": {"test_system": "22RV1 cells", "parameters": "key to Results (simvastatin alone): Positive: Simvastatin alone inhibited the progression of cancer; Negative: Simvastatin alone could not inhibit the progression of cancer", "details": "Prostate Cancer, 25.0 mg/kg/day, i.p.; ref Supplement [15]; cited from earlier work"}, "[6]": {"test_system": "TSC2-null cells from the primary tumors", "parameters": "method as in Supplement [3]; key: Positive: Simvastatin alone inhibited the progression of cancer; Negative: Simvastatin alone could not inhibit the progression of cancer", "details": "Pulmonary Lymphangioleiomyomatosis, 100.0 mg/kg/day, oral; ref Supplement [3]; cited from earlier work"}, "[7]": {"test_system": "N2a cells", "test": "MTT cell viability assay, N2a", "format": "cell-based, mouse", "details": "Mus musculus", "procedure": "N2a, SH-SY5Y, SK-N-BE (2), 10A, HUVEC, HL7702 cells were plated in 96-well plates at 8,000 cells/well, respectively, in complete media in triplicate wells for each dose and cultured for 18 h. The neuroblastoma cell lines, N2a, SH-SY5Y, and SK-N-BE (2), and non-cancer cell lines, 10A, HUVEC, and HL7702, were treated with simvastatin and fluvastatin in a range of doses from 0 to 20 μM and with AA from 0 to 30 μM; N2a, SH-SY5Y SK-N-BE (2), were treated with rosuvastatin in a range of doses from 0 to 100 μM for 72 h. Statins dissolved in DMSO and AA dissolved in ethanol. After 72 h treatment, the medium was added 0.5 mg/ml MTT reagent and incubated at 37°C for 4 h. Subsequently, the supernatant was aspirated, and cells were lysed in 150 µl DMSO, then shaken 10 min at 37°C. The optical density (OD) was measured at 570 and 630 nm using a plate reader."}, "[8]": {"test_system": "Caki-1-staR cells", "parameters": "method as in Supplement [13]; key: Positive: Simvastatin alone inhibited the progression of cancer; Negative: Simvastatin alone could not inhibit the progression of cancer", "details": "Renal Cancer, 6.7 mg/kg/day, i.p.; ref Supplement [13]; cited from earlier work"}, "[9]": {"test_system": "SNU-5 cells", "parameters": "method as in Supplement [6]; key: Positive: Simvastatin alone inhibited the progression of cancer; Negative: Simvastatin alone could not inhibit the progression of cancer", "details": "Gastric Cancer, 2.1 mg/kg/day, i.p.; ref Supplement [6]; cited from earlier work"}, "[10]": {"test_system": "KHOS or NP cells", "parameters": "method as in Supplement [24]; key: Positive: Simvastatin alone inhibited the progression of cancer; Negative: Simvastatin alone could not inhibit the progression of cancer", "details": "Osteosarcoma, 10.0 mg/kg, route unknown; ref Supplement [24]; cited from earlier work"}, "[11]": {"test_system": "PC-3 cells", "parameters": "key to Results (simvastatin alone): Positive: Simvastatin alone inhibited the progression of cancer; Negative: Simvastatin alone could not inhibit the progression of cancer", "details": "Prostate Cancer, i.p., cited from earlier work"}, "[12]": {"test_system": "MDA-MB-231 cells", "parameters": "key: Positive: Simvastatin alone inhibited the progression of cancer; Negative: Simvastatin alone could not inhibit the progression of cancer", "details": "Breast Cancer, cited from earlier work"}, "[13]": {"test_system": "SW 480 cells", "parameters": "method as in Supplement [10]; key: Positive: Simvastatin alone inhibited the progression of cancer; Negative: Simvastatin alone could not inhibit the progression of cancer", "details": "Colorectal Cancer, 6.0 mg/kg/day, oral; ref Supplement [10]; cited from earlier work"}, "[14]": {"test_system": "HepG2 cells", "parameters": "method as in Supplement [7]; key: Positive: Simvastatin alone inhibited the progression of cancer; Negative: Simvastatin alone could not inhibit the progression of cancer", "details": "Hepatocellular Carcinoma, 40.0 mg/kg/day, i.p.; ref Supplement [7]; cited from earlier work"}, "[15]": {"test_system": "HL7702 cells", "test": "MTT cell viability assay, HL7702", "format": "cell-based", "details": "Homo sapiens, L02, normal cell line, 72 h", "procedure": "as §1"}, "[16]": {"test_system": "HUVEC cells", "test": "MTT cell viability assay, HUVEC", "format": "cell-based", "details": "Homo sapiens, normal cell line, 72 h", "procedure": "as §1"}, "[17]": {"test_system": "specimens of T-ALL patients", "parameters": "method as in Supplement [25]; key: Positive: Simvastatin alone inhibited the progression of cancer; Negative: Simvastatin alone could not inhibit the progression of cancer", "details": "Pediatric Acute Lymphoblastic Leukemia, 20.0 mg/kg/day, oral; ref Supplement [25]; cited from earlier work"}}, "note": "Read-outs that look alike come from different tables or passages of the source.", "data": [{"smiles": "CCC(C)(C)C(=O)O[C@H]1C[C@@H](C)C=C2C=C[C@H](C)[C@H](CC[C@@H]3C[C@@H](O)CC(=O)O3)[C@H]21", "note": "[Simvastatin]", "values": [{"measurement": "IC50", "setting": "[1]", "result": 26.7, "unit": "µM"}, {"measurement": "Results (simvastatin alone)", "setting": "[2]", "result": "Positive"}, {"measurement": "Results (simvastatin alone)", "setting": "[3]", "result": "Positive"}, {"measurement": "Results (simvastatin alone)", "setting": "[4]", "result": "Positive"}, {"measurement": "Results (simvastatin alone)", "setting": "[5]", "result": "Positive"}, {"measurement": "Results (simvastatin alone)", "setting": "[6]", "result": "Positive"}, {"measurement": "IC50", "setting": "[7]; N2a, NB cell line, MTT, 72 h", "result": 6.07, "unit": "µM"}, {"measurement": "inhibition at 1.5 µM", "setting": "[7]; N2a cells, 1.5 μM simvastatin, read-out: inhibition rate", "result": "~10", "unit": "%"}, {"measurement": "Results (simvastatin alone)", "setting": "[8]", "result": "Negative"}, {"measurement": "Results (simvastatin alone)", "setting": "[9]", "result": "Positive"}, {"measurement": "Results (simvastatin alone)", "setting": "[10]", "result": "Positive"}, {"measurement": "Results (simvastatin alone)", "setting": "[11]; 2.0 mg/kg/day or 4.0 mg/kg/day, ref Supplement [18]", "result": "Positive"}, {"measurement": "Results (simvastatin alone)", "setting": "[11]; 2.1 mg/kg/day or 21.0 mg/kg/day, ref Supplement [19]", "result": "Positive"}, {"measurement": "Results (simvastatin alone)", "setting": "[11]; 4.0 mg/kg/day, ref Supplement [17]", "result": "Positive"}, {"measurement": "Results (simvastatin alone)", "setting": "[12]; 5.0 mg/kg/day, i.v., ref Supplement [23]", "result": "Positive"}, {"measurement": "Results (simvastatin alone)", "setting": "[12]; 5.0 mg/kg/day, route unknown, ref Supplement [21]", "result": "Positive"}, {"measurement": "Results (simvastatin alone)", "setting": "[12]; 10.0 mg/kg/day, oral, ref Supplement [20]", "result": "Positive"}, {"measurement": "Results (simvastatin alone)", "setting": "[12]; 200.0 mg/kg/day, oral, ref Supplement [22]", "result": "Positive"}, {"measurement": "Results (simvastatin alone)", "setting": "[13]", "result": "Positive"}, {"measurement": "Results (simvastatin alone)", "setting": "[14]", "result": "Positive"}, {"measurement": "IC50", "setting": "[15]", "result": 20.6, "unit": "µM"}, {"measurement": "IC50", "setting": "[16]", "result": 14.6, "unit": "µM"}, {"measurement": "Results (simvastatin alone)", "setting": "[17]", "result": "Negative"}]}]}
